Target: T1, human CYP17 in H295R adrenocortical carcinoma cells (Homo sapiens, UniProt P05093)
T1 construct: H295R Adrenocortical carcinoma cells [NCI-H295A, ATCC Number CRL-2128, American Type Culture Collection; host or cells: H295R adrenocortical carcinoma cells
T1 sequence (P05093 1-508): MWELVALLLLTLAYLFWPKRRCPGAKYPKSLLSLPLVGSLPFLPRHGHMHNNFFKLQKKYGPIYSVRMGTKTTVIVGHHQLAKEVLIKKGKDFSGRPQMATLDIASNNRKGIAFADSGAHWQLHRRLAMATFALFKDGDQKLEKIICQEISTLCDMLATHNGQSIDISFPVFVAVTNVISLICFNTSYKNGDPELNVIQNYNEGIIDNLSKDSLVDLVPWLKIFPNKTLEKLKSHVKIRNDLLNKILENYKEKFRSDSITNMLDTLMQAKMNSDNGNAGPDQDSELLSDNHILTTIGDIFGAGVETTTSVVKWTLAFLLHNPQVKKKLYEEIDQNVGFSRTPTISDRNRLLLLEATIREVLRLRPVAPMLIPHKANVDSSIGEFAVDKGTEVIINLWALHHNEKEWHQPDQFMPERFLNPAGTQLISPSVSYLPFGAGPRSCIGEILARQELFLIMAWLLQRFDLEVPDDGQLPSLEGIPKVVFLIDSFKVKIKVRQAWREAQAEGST
Test: Cell-based human CYP17 inhibition assay, H295R cells
Settings: 16 hours, read-out: CYP17 (human H295R adrenal cells)
Summary of the method: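 H295R cells or LNCaP cells stably transfected with full-length human CYP17A1 (30,000/well) incubated 16 h at 37 °C with ³H-17α-hydroxypregnenolone and compound (top 10 μM, 3-fold dilutions, up to 10 concentrations). Medium chloroform-extracted and charcoal-treated; aqueous-phase radioactivity counted by scintillation.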

Row | SMILES | IC50 [nM]
1 | CC(O)(c1ccncc1)c1ncc(-c2ccc(F)cc2)s1 (stereo not drawn) [Example 14, 1-(5-(4-Fluorophenyl)thiazol-2-yl)-1-(pyridin-4-yl)ethanol] | < 50
2 | Cn1cc(-c2ccc(C(C)(O)c3ccncc3)s2)ccc1=O (stereo not drawn) [Example 15, 5-(5-(1-Hydroxy-1-(pyridin-4-yl)ethyl)thiophen-2-yl)-1-methyl-pyridin-2(1H)-one] | 50 to 200
3 | CC(O)(c1ccncc1)c1cnc(-c2ccc(F)cc2)s1 (single isomer, unassigned) [Example 8, 1-(2-(4-fluorophenyl)thiazol-5-yl)-1-(pyridin-4-yl)ethanol] | 201 to 10000
4 | CC(O)(c1ccncc1)c1cnc(-c2ccc(F)cc2)s1 (single isomer, unassigned) [Example 9, 1-(2-(4-fluorophenyl)thiazol-5-yl)-1-(pyridin-4-yl)ethanol] | < 50
5 | CCC(O)(c1ccncc1)c1cnc(-c2ccc(F)cc2)s1 (stereo not drawn) [Example 4, 1-(2-(4-fluorophenyl)-thiazol-5-yl)-1-(pyridin-4-yl)propan-1-ol] | 50 to 200
6 | CC(O)(c1ccncc1)c1cnc(-c2ccc(F)cc2)s1 (racemic) [Example 7, 1-(2-(4-Fluorophenyl)thiazol-5-yl)-1-(pyridin-4-yl)ethanol] | 50 to 200
7 | COc1ccc(-c2ccc(C(C)(O)c3ccncc3)nc2)cc1 (single isomer, unassigned) [Example 3, 1-(5-(4-methoxyphenyl)-pyridin-2-yl)-1-(pyridin-4-yl)ethanol] | 201 to 10000
8 | COc1ccc(-c2ccc(C(C)(O)c3ccncc3)nc2)cc1 (single isomer, unassigned) [Example 2, 1-(5-(4-methoxyphenyl)-pyridin-2-yl)-1-(pyridin-4-yl)ethanol] | 50 to 200
9 | CC(O)(c1ccncc1)c1nc(-c2ccc(F)cc2)no1 (stereo not drawn) [Example 34, 1-(3-(4-Fluorophenyl)-1,2,4-oxadiazol-5-yl)-1-(pyridin-4-yl)ethanol] | < 50
10 | CC(O)(c1ccncc1)c1nc(-c2ccc(F)cc2)no1 (single isomer, unassigned; (+)) [Example 36, (+)-1-(3-(4-fluoro-phenyl)-1,2,4-oxadiazol-5-yl)-1-(pyridin-4-yl)ethanol] | < 50
11 | Cn1cc(-c2ccc(C(C)(O)c3ccncc3)s2)ccc1=O (single isomer, unassigned; (-)) [Example 17, (−)-5-(5-(1-hydroxy-1-(pyridin-4-yl)ethyl)thiophen-2-yl)-1-methylpyridin-2(1H)-one] | < 50
12 | COc1ccc(-c2ccc(C(C)(O)c3ccncc3)nc2)cc1 (racemic) [Example 1, 1-(5-(4-Methoxyphenyl)pyridin-2-yl)-1-(pyridin-4-yl)ethanol] | 50 to 200

— patent publication US8809372B2, “Pyridine derivatives” (Endo Pharmaceuticals, Inc., priority 2011, dated 2014)
